For data set [1], the system named is Hepatitis C virus. Description: Antiviral activity against HCV genotype 1b infected in human Huh7 cells after 3 days by cell-based replicon assay in presence of 10% fetal bovine serum. It is filed as functional, Hepacivirus hominis. The note with it: Huh-7, 72 h. On the technique in general: Replicon systems follow genome replication, usually without infectious particles.

The subject of data set [2] is Hepatitis C virus. Kind of data set: Antiviral activity against HCV genotype 1b infected in human Huh7 cells after 3 days by cell-based replicon assay in presence of 40% normal human serum. In kind it is functional, Hepacivirus hominis. The note with it: Huh-7, 72 h.
A short description of data set [3]: Cytotoxicity against human HuH7 cells. In kind it is cell-based, Huh-7.
The nature of data set [4]: Cmax in beagle dog at 2.5 mg/kg, po. To be noted: in vivo. It is filed as ADME, organism-based, Canis lupus familiaris. More on the design: dose 2.5 mg/kg, route oral.
The nature of data set [5]: Oral bioavailability in beagle dog at 2.5 mg/kg. In kind it is ADME, organism-based, Canis lupus familiaris. The note with it: in vivo.
For data set [6], the system named is Hepatitis C virus. Description: Antiviral activity against HCV genotype 1b infected in human Huh7 cells after 3 days by cell-based replicon assay. In kind it is functional, Hepacivirus hominis. To be noted: Huh-7, 72 h.
Data set [7] is described as follows: Oral bioavailability in Sprague-Dawley rat at 1 mg/kg. In kind it is ADME, organism-based. The note with it: in vivo.
Data set [8] is described as follows: Oral bioavailability in monkey at 2.5 mg/kg. In kind it is ADME, organism-based, Macaca mulatta. The note with it: rhesus monkey, in vivo.
The nature of data set [9]: Cmax in monkey at 2.5 mg/kg, po. It is filed as ADME, organism-based, Macaca mulatta. On the set-up: dose 2.5 mg/kg, route oral. The note with it: rhesus monkey, in vivo.
A short description of data set [10]: Cmax in Sprague-Dawley rat at 3 mg/kg, po. In kind it is ADME, organism-based. More on the design: dose 3 mg/kg, route oral. The note with it: in vivo.
The nature of data set [11]: Half life in monkey at 2.5 mg/kg, po. It is filed as ADME, organism-based, Macaca mulatta. More on the design: dose 2.5 mg/kg, route oral. The note with it: rhesus monkey, in vivo.
A short description of data set [12]: Half life in Sprague-Dawley rat at 3 mg/kg, po. It is filed as ADME, organism-based. On the set-up: dose 3 mg/kg, route oral. To be noted: in vivo.
Data set [13] is described as follows: Half life in beagle dog at 2.5 mg/kg, po. To be noted: in vivo. It is filed as ADME, organism-based, Canis lupus familiaris. More on the design: dose 2.5 mg/kg, route oral.
The nature of data set [14]: Half life in Sprague-Dawley rat at 5 mg/kg, iv as 30 mins infusion. It is filed as ADME, organism-based. On the set-up: dose 5 mg/kg, route intravenous. To be noted: in vivo.
Data set [15] can be described thus: Half life in beagle dog at 1 mg/kg, iv as 30 mins infusion. The note with it: in vivo. On the set-up: dose 1 mg/kg, route intravenous. It is filed as ADME, organism-based, Canis lupus familiaris.
Data set [16] in a line: Lipophilicity, log P of the compound. It is filed as physicochemical. The note with it: octanol/water.
A short description of data set [17]: Half life in monkey at 1 mg/kg, iv as 30 mins infusion. It is filed as ADME, organism-based, Macaca mulatta. More on the design: dose 1 mg/kg, route intravenous. The note with it: rhesus monkey, in vivo.
Data set [18] can be described thus: Oral bioavailability in Sprague-Dawley rat at 30 mg/kg. In kind it is ADME, organism-based. The note with it: in vivo.
A short description of data set [19]: Oral bioavailability in beagle dog at 2 mg/kg. In kind it is ADME, organism-based, Canis lupus familiaris. The note with it: in vivo.
Data set [20] can be described thus: Half life in monkey at 3 mg/kg, po. In kind it is ADME, organism-based, Macaca mulatta. More on the design: dose 3 mg/kg, route oral. The note with it: rhesus monkey, in vivo.
A short description of data set [21]: Cmax in monkey at 3 mg/kg, po. It is filed as ADME, organism-based, Macaca mulatta. More on the design: dose 3 mg/kg, route oral. To be noted: rhesus monkey, in vivo.
The nature of data set [22]: Oral bioavailability in Sprague-Dawley rat at 5 mg/kg. In kind it is ADME, organism-based. The note with it: in vivo.
Data set [23] can be described thus: Oral bioavailability in beagle dog at 2.3 mg/kg. It is filed as ADME, organism-based, Canis lupus familiaris. The note with it: in vivo.
Data set [24] in a line: Half life in Sprague-Dawley rat at 1 mg/kg, iv as 30 mins infusion. To be noted: in vivo. On the set-up: dose 1 mg/kg, route intravenous. It is filed as ADME, organism-based.
Data set [25] can be described thus: Oral bioavailability in beagle dog at 1 mg/kg. In kind it is ADME, organism-based, Canis lupus familiaris. The note with it: in vivo.
Data set [26] in a line: Oral bioavailability in Sprague-Dawley rat at 2 mg/kg. To be noted: in vivo. In kind it is ADME, organism-based.
Data set [27] is described as follows: Cmax in monkey at 5 mg/kg, po. More on the design: dose 5 mg/kg, route oral. It is filed as ADME, organism-based, Macaca mulatta. To be noted: rhesus monkey, in vivo.
Data set [28] in a line: Oral bioavailability in monkey at 5 mg/kg. In kind it is ADME, organism-based, Macaca mulatta. The note with it: rhesus monkey, in vivo.

pEC50: −log10 of the molar value. A value given as a limit tells only on which side of the number the result lay.

By pEC50 is commonly meant the EC50 on a negative log10 scale, so that one unit is a factor of ten. Usually CC50 stands for the concentration at which the toxic effect on the cells reaches its halfway point. Turning to `COC(=O)N[C@H](C(=O)N1CCC[C@@H]1c1ncc(-c2ccc(C#CC#Cc3cnc([C@H]4CCCN4C(=O)[C@H](NC(=O)OC)C(C)C)[nH]3)cc2)[nH]1)C(C)C`, the pEC50 was 9.39 in [1] and 9.13 in [2]. The same compound returned a CC50 in [3] of 30300 nM.
Turning to `COC(=O)N[C@H](C(=O)N1CCC[C@@H]1c1ncc(C#CC#Cc2ccc(-c3cnc([C@H]4CCCN4C(=O)[C@H](NC(=O)OC)C(C)C)[nH]3)cc2)[nH]1)C(C)C` (single isomer, unassigned), the values for the pEC50 in data set [1] and in [2] were 10.10 and 9.61, respectively. This compound returned a CC50 in [3] of 24700 nM.
One may read the Cmax as the peak of the concentration-time curve. The half-life is the time in which the quantity being followed falls by half. As to `COC(=O)N[C@@H](C(=O)N1CCC[C@H]1C(=O)Nc1ccc([C@H]2CC[C@@H](c3ccc(NC(=O)[C@@H]4CCCN4C(=O)[C@H](NC(=O)OC)C(C)C)cc3)N2c2ccc(C(C)(C)C)cc2)cc1)C(C)C`, the results for the Cmax in data set [4], in data set [9] and in [10] were 720 nM, 320 nM and 3360 nM, respectively. In addition, the bioavailability in data set [5] worked out at 57%; in [7], 6.2%; in [8] it was 35%. In addition, the pEC50 in data set [6] is 11.30. Moreover, the values for the half-life in data set [11], in [12] and in data set [13] were 5 h, 15.9 h and 7.3 h, respectively.
Consider `COC(=O)N[C@H](C(=O)N1CCC[C@H]1c1ncc(-c2ccc(-c3csc4c(-c5ccc6[nH]c([C@@H]7CCCN7C(=O)[C@H](NC(=O)OC)c7ccccc7)nc6c5)csc34)cc2)[nH]1)C(C)C`, for which the pEC50 in data set [6] was 11.52.
In general, logP refers to the decadic logarithm of the partition coefficient of the neutral form, usually between octanol and water. Regarding `COC(=O)N[C@@H](C(=O)N1CCC[C@H]1c1ncc(-c2ccc3c(c2)O[C@@H](c2ccccc2)n2c-3cc3cc(-c4cnc([C@@H]5CCCN5C(=O)[C@H](NC(=O)OC)C(C)C)[nH]4)ccc32)[nH]1)C(C)C`, the pEC50 in data set [6] is 11.52. Besides, the half-life in [14] was 4.2 h; in [15], 4.7 h; in [17] it was 16 h. In [16], this compound showed a logP of 8.61. For the same compound, the bioavailability came to 9% in data set [18] and 35% in data set [19].
For the compound `COC(=O)N[C@H](C(=O)N1CCCC1c1ncc(C#CC#Cc2ccc(-c3cnc(C4CCCN4C(=O)[C@@H](NC(=O)OC)C(C)C)[nH]3)cc2)[nH]1)C(C)C` (single isomer, unassigned; 13i), the pEC50 is 8.27 in data set [1] and 7.44 in data set [2]. This compound also displayed a CC50 in [3] of 34700 nM.
For `CN(C)[C@@H](C(=O)N1CCC[C@H]1c1nc2cc(-c3cnc(-c4ccc5[nH]c([C@@H]6CCCN6C(=O)[C@@H](c6ccccc6)N(C)C)nc5c4)o3)ccc2[nH]1)c1ccccc1`, the pEC50 in data set [6] was > 8.34.
Same read-out and setting: then `COC(=O)N[C@@H](C(=O)N1CCC[C@H]1c1ncc(C#CC#Cc2cnc([C@@H]3CCCN3C(=O)[C@H](NC(=O)OC)C(C)C)[nH]2)[nH]1)C(C)C`, with 8.88.
In the case of `COC(=O)N[C@@H](C(=O)N1CCC[C@H]1c1nc2ccc(C#CC#Cc3ccc4nc([C@@H]5CCCN5C(=O)[C@H](NC(=O)OC)C(C)C)[nH]c4c3)cc2[nH]1)C(C)C`, the pEC50 in data set [6] is 11.05.
On the same count and under the same terms, the same measure for `COC(=O)N[C@H](C(=O)N1CCC[C@H]1c1ncc(-c2ccc(-c3ccc(-c4cnc([C@@H]5CC6(CN5C(=O)[C@@H](NC(=O)OC)C(C)C)OCCO6)[nH]4)cc3)cc2)[nH]1)C(C)C`: 11.13; for `COC(=O)N[C@@H](C(=O)N1CCC[C@H]1c1ncc(-c2ccc(C#CC#Cc3ccc(-c4cnc([C@@H]5CCCN5C(=O)[C@H](NC(=O)OC)C(C)C)[nH]4)cc3)cc2)[nH]1)C(C)C`: 9.42.
Consider `COC(=O)N[C@H](C(=O)N1CCCC1c1ncc(C#CC#Cc2ccc(-c3cnc(C4CCCN4C(=O)[C@@H](NC(=O)OC)C(C)C)[nH]3)cc2)[nH]1)C(C)C` (single isomer, unassigned; 13j), for which the negative-log EC50 (pEC50) in data set [1] was 5.05; in data set [2], 5.16. The same compound registered a CC50 in data set [3] of 59700 nM.
Take `COC(=O)N[C@H](C(=O)N1CCC[C@H]1c1ncc(-c2ccc(-c3ccc(-c4cnc([C@@H]5CCCN5C(=O)[C@@H](NC(=O)OC)C(C)C)[nH]4)cc3)cc2)[nH]1)C(C)C`: the half-life in [20] is 3 h; in data set [12] it was 1.5 h. In addition, the pEC50 in data set [6] was 11.52. In addition, the Cmax in data set [21] worked out at 500 nM; in [10], 728 nM. Further, the logP in data set [16] was determined as 6.33. Also, the bioavailability was determined as 50% in data set [22] and 58.5% in [23].
`COC(=O)N[C@@H](C(=O)N1CCC[C@H]1c1nc2ccc(C#Cc3ccc4nc([C@@H]5CCCN5C(=O)[C@H](NC(=O)OC)C(C)C)[nH]c4c3)cc2[nH]1)C(C)C` gave a pEC50 in [6] of 10.26.
For `c1cc2oc(-c3ccc(-c4ncc([C@@H]5CCCN5)[nH]4)cc3)cc2cc1-c1cnc([C@@H]2CCCN2)[nH]1`, the half-life in data set [15] is 7.7 h; in data set [24], 2 h; in data set [17] it was 3 h. In addition, the bioavailability was found to be 108% in data set [25], 38% in data set [26] and 12% in data set [28]. The compound also registered a Cmax in data set [27] of 180 nM.
As to `COC(=O)N[C@@H](C(=O)N1CCCC1c1ncc(C#CC#Cc2ccc(-c3cnc(C4CCCN4C(=O)[C@H](NC(=O)OC)C(C)C)[nH]3)cc2)[nH]1)C(C)C` (single isomer, unassigned; 13k), the results for the pEC50 in data set [1] and in data set [2] were 6.00 and 5.13, respectively. The same compound had a CC50 in [3] of 108000 nM.
For the compound `COC(=O)N[C@@H](C(=O)N1CCCC1c1ncc(C#CC#Cc2ccc(-c3cnc(C4CCCN4C(=O)[C@H](NC(=O)OC)C(C)C)[nH]3)cc2)[nH]1)C(C)C` (single isomer, unassigned; 13b), the pEC50 in data set [1] is 7.33; in data set [2] it was 6.86. For the same compound, half-maximal cytotoxicity in data set [3] (CC50) was put at 298000 nM.

For the origin of these results see ChEMBL document CHEMBL3351364 (J Med Chem, 2014).
